Assay results from ChEMBL document CHEMBL1201862, “PubChem BioAssay data set” (2004).
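These data come from cells grown in 96-well plates and exposed to compound for 48 hours at five concentrations. GI50 marks 50% less growth.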 Activity calls are given as the source filed them. Rule as the data show it: active = GI50 up to about 1.1 µM and inactive = higher. Square brackets hold non-standard residues; d marks the D form. Peptide text beside a SMILES is read from it. pGlu = O=C1CC[C@@H](C(=O)O)N1; Thz = O=C(O)[C@@H]1CSCN1

Tests used:
Experiment in all cases: NCI-60 cell line screen, 48 h
K562 = test system: K562
SF-268 = test system: SF-268
NCI-H522 = test system: NCI-H522
RPMI-8226 = test system: RPMI-8226
SNB-75 = test system: SNB-75
UACC-257 = test system: UACC-257
HT-29 = test system: HT-29
SK-MEL-2 = test system: SK-MEL-2
OVCAR-8 = test system: OVCAR-8
OVCAR-5 = test system: OVCAR-5
786-0 = test system: 786-0
UACC-62 = test system: UACC-62
MDA-MB-435 = test system: MDA-MB-435
DU-145 = test system: DU-145
T47D = test system: T47D
SK-MEL-28 = test system: SK-MEL-28
COLO 205 = test system: COLO 205
MDA-MB-231 = test system: MDA-MB-231
SR = test system: SR
HOP-92 = test system: HOP-92

| SMILES | GI50 (K562) | GI50 (SF-268) | GI50 (NCI-H522) | GI50 (RPMI-8226) | GI50 (SNB-75) | GI50 (UACC-257) | GI50 (HT-29) | GI50 (SK-MEL-2) | GI50 (OVCAR-8) | GI50 (OVCAR-5) | GI50 (786-0) | GI50 (UACC-62) | GI50 (MDA-MB-435) | GI50 (DU-145) | GI50 (T47D) | GI50 (SK-MEL-28) | GI50 (COLO 205) | GI50 (MDA-MB-231) | GI50 (SR) | GI50 (HOP-92) |
| --- | --- | --- | --- | --- | --- | --- | --- | --- | --- | --- | --- | --- | --- | --- | --- | --- | --- | --- | --- | --- |
| CCC(CS(=O)(=O)O)[N+](=O)[O-] (stereo not drawn) | > 100 µM (inactive) | > 100 µM (inactive) | > 100 µM (inactive) | > 100 µM (inactive) | > 100 µM (inactive) | > 100 µM (inactive) | > 100 µM (inactive) | > 100 µM (inactive) | > 100 µM (inactive) | > 100 µM (inactive) | > 100 µM (inactive) | > 100 µM (inactive) | > 100 µM (inactive) | > 100 µM (inactive) | > 100 µM (inactive) | > 100 µM (inactive) | > 100 µM (inactive) | > 100 µM (inactive) |  |  |
| COC(=O)[C@@]1(NC(=O)C(CC(=O)OC(C)(C)C)NC(=O)OC(C)(C)C)C[C@H]1C (stereo partly drawn) | > 100 µM (inactive) | > 100 µM (inactive) | > 100 µM (inactive) | > 100 µM (inactive) | > 100 µM (inactive) | > 100 µM (inactive) | > 100 µM (inactive) | > 100 µM (inactive) | > 100 µM (inactive) | > 100 µM (inactive) | > 100 µM (inactive) | > 100 µM (inactive) | > 100 µM (inactive) | > 100 µM (inactive) | > 100 µM (inactive) | > 100 µM (inactive) | > 100 µM (inactive) | > 100 µM (inactive) |  |  |
| O=C(O)C[C@@H]1[C@@H](O)[C@@H](O)CN2C(=O)c3ccccc3[C@H]12 | > 100 µM (inactive) | > 100 µM (inactive) | > 100 µM (inactive) | > 100 µM (inactive) | > 100 µM (inactive) | > 100 µM (inactive) | > 100 µM (inactive) | > 100 µM (inactive) | > 100 µM (inactive) | > 100 µM (inactive) | > 100 µM (inactive) | > 100 µM (inactive) | > 100 µM (inactive) | > 100 µM (inactive) | > 100 µM (inactive) | > 100 µM (inactive) | > 100 µM (inactive) | > 100 µM (inactive) | > 100 µM (inactive) |  |
| O=C1CC[C@@H](C(=O)N2CSC[C@H]2C(=O)O)N1 [PIDOTIMOD] ([pGlu]-[Thz]-OH) | > 100 µM (inactive) | > 100 µM (inactive) | > 100 µM (inactive) | > 100 µM (inactive) | > 100 µM (inactive) | > 100 µM (inactive) | > 100 µM (inactive) | > 100 µM (inactive) | > 100 µM (inactive) | > 100 µM (inactive) | > 100 µM (inactive) | > 100 µM (inactive) | > 100 µM (inactive) | > 100 µM (inactive) | > 100 µM (inactive) | > 100 µM (inactive) |  | > 100 µM (inactive) | > 100 µM (inactive) |  |
| CCOC(=O)NN(C(=O)OCC)c1ccc(/N=N/c2ccc(OC)cc2)n1C | 23.1 µM (inactive) |  | 18 µM (inactive) | 19.9 µM (inactive) | 10.3 µM (inactive) | 23.1 µM (inactive) | 22.4 µM (inactive) | 10.8 µM (inactive) | 35.5 µM (inactive) | 32.7 µM (inactive) | 32.2 µM (inactive) | 99.1 µM (inactive) | 22.7 µM (inactive) |  | 21 µM (inactive) |  | 21.7 µM (inactive) | 19.8 µM (inactive) |  | 24.8 µM (inactive) |
| CC(CCc1ccccc1)NCC(O)n1c(/N=N/N(C)C)nc2c1c(=O)n(C)c(=O)n2C (stereo not drawn) | > 100 µM (inactive) | > 100 µM (inactive) | > 100 µM (inactive) | > 100 µM (inactive) | 9.62 µM (inactive) | > 100 µM (inactive) | > 100 µM (inactive) | > 100 µM (inactive) | > 100 µM (inactive) | > 100 µM (inactive) | > 100 µM (inactive) | > 100 µM (inactive) | > 100 µM (inactive) |  | > 100 µM (inactive) | > 100 µM (inactive) | > 100 µM (inactive) | > 100 µM (inactive) | 43.2 µM (inactive) | > 100 µM (inactive) |
| Cc1c2c(c(C)n1-c1ccccc1)C(=O)N(CCSC(=N)N)C2=O | > 100 µM (inactive) | > 100 µM (inactive) | 35.7 µM (inactive) | > 100 µM (inactive) | 15.6 µM (inactive) | 28.8 µM (inactive) | > 100 µM (inactive) | 31.4 µM (inactive) | 62.2 µM (inactive) | > 100 µM (inactive) | > 100 µM (inactive) | > 100 µM (inactive) | 93.3 µM (inactive) | > 100 µM (inactive) | 1.9 µM (inactive) | > 100 µM (inactive) | > 100 µM (inactive) | > 100 µM (inactive) |  | > 100 µM (inactive) |
| CCO/C(=N/S(=O)(=O)C(F)(F)F)N(C(C)C)C(C)C |  | > 100 µM (inactive) | > 100 µM (inactive) | > 100 µM (inactive) |  | > 100 µM (inactive) | > 100 µM (inactive) | > 100 µM (inactive) | > 100 µM (inactive) | > 100 µM (inactive) | > 100 µM (inactive) | > 100 µM (inactive) | > 100 µM (inactive) | > 100 µM (inactive) | > 100 µM (inactive) | > 100 µM (inactive) | > 100 µM (inactive) | > 100 µM (inactive) |  | > 100 µM (inactive) |
| OCCCCCCOc1ccc(-c2cc(-c3ccccn3)nc(-c3ccccn3)c2)cc1 | 0.0728 µM (active) | 0.0668 µM (active) | 0.536 µM (active) | 0.134 µM (active) | 0.637 µM (active) | 0.397 µM (active) | 0.228 µM (active) | 0.233 µM (active) | 0.136 µM (active) | 0.489 µM (active) | 0.0944 µM (active) | 0.149 µM (active) | 0.462 µM (active) | 0.0716 µM (active) | 0.148 µM (active) | 0.248 µM (active) | 0.372 µM (active) |  | 0.0286 µM (active) | 0.643 µM (active) |
| CSc1nc(O)c(C#N)c(-c2ccc(Cl)cc2)n1 | > 100 µM (inactive) | > 100 µM (inactive) | 51.8 µM (inactive) | 80.4 µM (inactive) | 93.8 µM (inactive) | > 100 µM (inactive) | > 100 µM (inactive) | > 100 µM (inactive) | > 100 µM (inactive) | > 100 µM (inactive) | > 100 µM (inactive) | 73.6 µM (inactive) | > 100 µM (inactive) | > 100 µM (inactive) | 43.7 µM (inactive) | > 100 µM (inactive) | > 100 µM (inactive) | > 100 µM (inactive) |  | 24.8 µM (inactive) |
| C[C@]12CC[C@H](O)CC1=CC[C@@H]1[C@@H]2CC[C@]2(C)C(=N/O)/C(=C/c3ccc([N+](=O)[O-])cc3)C[C@@H]12 | 3.3 µM (inactive) | 10.9 µM (inactive) | 3.18 µM (inactive) | 3.59 µM (inactive) | 4.32 µM (inactive) | 3.65 µM (inactive) | 6.15 µM (inactive) | 4.53 µM (inactive) | 2.82 µM (inactive) | 1.61 µM (inactive) | 3.03 µM (inactive) | 10.9 µM (inactive) | 8.38 µM (inactive) | 6.73 µM (inactive) | 2.48 µM (inactive) | 5.9 µM (inactive) | 3.53 µM (inactive) |  | 2.51 µM (inactive) | 3.29 µM (inactive) |
| CCc1nc(N)nc(N)c1-c1ccc(Cl)c(N=[N+]=[N-])c1 | 0.531 µM (active) | 6.4 µM (inactive) | 7.06 µM (inactive) | 12.1 µM (inactive) | 18.8 µM (inactive) |  |  | 17.4 µM (inactive) |  | 21.8 µM (inactive) | 3.8 µM (inactive) |  | 4.57 µM (inactive) | 12.4 µM (inactive) | 25.3 µM (inactive) | 15.4 µM (inactive) | 11.9 µM (inactive) | 14.8 µM (inactive) |  | 10.7 µM (inactive) |
| O=C(c1ccccc1)c1ccc(N2C(=O)/C(=C/c3cccc(Oc4ccccc4)c3)N=C2c2ccccc2)c(N2C(=O)/C(=C/c3cccc(Oc4ccccc4)c3)N=C2c2ccccc2)c1 | 9.42 µM (inactive) | 36.3 µM (inactive) | 11.4 µM (inactive) | 19.3 µM (inactive) | 23.9 µM (inactive) | 17.7 µM (inactive) | 30.9 µM (inactive) | 17.7 µM (inactive) | 32.1 µM (inactive) | 50.6 µM (inactive) | 31.5 µM (inactive) | 11.9 µM (inactive) | 4.72 µM (inactive) | 46.5 µM (inactive) | 30.7 µM (inactive) | 51.3 µM (inactive) | 18 µM (inactive) | 45.8 µM (inactive) |  | 88.5 µM (inactive) |
| CCn1c(-c2ccccc2)nc2c1C(=O)c1ccccc1C2=O | 25.9 µM (inactive) |  | 15.2 µM (inactive) | 36.6 µM (inactive) |  | 3.85 µM (inactive) | 8.99 µM (inactive) |  | 14 µM (inactive) | 32.9 µM (inactive) | 84.9 µM (inactive) | 15.8 µM (inactive) | 15.9 µM (inactive) | 28.1 µM (inactive) | 2.22 µM (inactive) | 56 µM (inactive) | 14.1 µM (inactive) |  | 22.3 µM (inactive) | 24.2 µM (inactive) |
| O=C(Nc1nnc(-c2c(Cl)c(Cl)c(Cl)c(Cl)c2-c2nc3cc(C(=O)c4ccccc4)ccc3[nH]2)o1)c1ccccc1 | 5.78 µM (inactive) |  |  | 12.4 µM (inactive) | 15.1 µM (inactive) | 23.2 µM (inactive) | 23.8 µM (inactive) | 17.7 µM (inactive) | 26.9 µM (inactive) | 26.4 µM (inactive) | 16.8 µM (inactive) |  | 3.89 µM (inactive) | 17.5 µM (inactive) | 16.4 µM (inactive) | 12.1 µM (inactive) | 12.2 µM (inactive) | 17.7 µM (inactive) | 4.9 µM (inactive) | 15.5 µM (inactive) |
